The source of these data is US20140296212A1, “SUBSTITUTED PHENOXYPROPYLCYCLOAMINE DERIVATIVES AS HISTAMINE-3 (H3) RECEPTOR LIGANDS” (CEPHALON, INC., priority 2009, published 2014).

Molecules are shown by their SMILES.

As usually defined, the Ki is the dissociation constant of the complex between target and ligand, obtained from inhibition or displacement. A word on the melting point: it is the temperature of the solid-liquid transition.

Data set [1] deals with T1, rat histamine H3 receptor (Rattus norvegicus, UniProt Q9QYN8).
T1 construct: encoding the entire 445-amino-acid rat histamine H3 receptor; expressed in transfected cells
Nature of the data set: Rat H3 radioligand binding ([3H]-N-alpha-methylhistamine, SPA). The conditions noted are these: membranes of CHO-A3 cells expressing rat H3; [3H]-N-alpha-methylhistamine; read-out: Rat H3 Ki. Summed up:
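Membranes from CHO-A3 cells stably expressing full-length rat H3 receptor (445 aa) incubated with ~1 nM [3H]-N-alpha-methylhistamine and compound (0.01 nM–30 μM) in 50 mM Tris HCl pH 7.4, 5 mM MgCl2, 0.1% BSA, 4 h, room temperature; SPA bead read-out. Non-specific binding defined with 10 μM clobenpropit.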

For the next data set, the target named is T2, human H3 receptor (Homo sapiens, UniProt Q9Y5N1).
T2 construct: expressed in transfected cells
Nature of the data set: Human H3 radioligand binding ([3H]-N-alpha-methylhistamine, SPA). The settings on record: membranes of CHO cells expressing human H3. Summed up:
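Membranes from H3-expressing cells (10 μg protein/well) in 50 mM Tris HCl pH 7.4, 5 mM MgCl2, 0.1% BSA with ~1 nM [3H]-N-alpha-methylhistamine and compound (0.01 nM–30 μM), SPA beads, 4 h, room temperature, dark. Non-specific binding defined with 10 μM clobenpropit; bound radioligand read by scintillation counting.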

T1 sequence (Q9QYN8 whole entry): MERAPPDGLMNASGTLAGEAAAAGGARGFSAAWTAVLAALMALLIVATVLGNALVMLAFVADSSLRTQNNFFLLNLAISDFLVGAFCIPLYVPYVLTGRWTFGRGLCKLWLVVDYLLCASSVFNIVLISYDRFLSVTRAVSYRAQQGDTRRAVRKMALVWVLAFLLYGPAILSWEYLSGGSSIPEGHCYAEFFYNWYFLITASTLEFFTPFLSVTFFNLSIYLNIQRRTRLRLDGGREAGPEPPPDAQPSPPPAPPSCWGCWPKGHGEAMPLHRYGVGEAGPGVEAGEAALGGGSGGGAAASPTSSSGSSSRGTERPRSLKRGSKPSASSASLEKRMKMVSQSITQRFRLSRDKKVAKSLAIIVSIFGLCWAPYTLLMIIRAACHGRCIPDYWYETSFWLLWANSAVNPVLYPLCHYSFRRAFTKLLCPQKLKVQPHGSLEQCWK
T2 sequence (Q9Y5N1 whole entry): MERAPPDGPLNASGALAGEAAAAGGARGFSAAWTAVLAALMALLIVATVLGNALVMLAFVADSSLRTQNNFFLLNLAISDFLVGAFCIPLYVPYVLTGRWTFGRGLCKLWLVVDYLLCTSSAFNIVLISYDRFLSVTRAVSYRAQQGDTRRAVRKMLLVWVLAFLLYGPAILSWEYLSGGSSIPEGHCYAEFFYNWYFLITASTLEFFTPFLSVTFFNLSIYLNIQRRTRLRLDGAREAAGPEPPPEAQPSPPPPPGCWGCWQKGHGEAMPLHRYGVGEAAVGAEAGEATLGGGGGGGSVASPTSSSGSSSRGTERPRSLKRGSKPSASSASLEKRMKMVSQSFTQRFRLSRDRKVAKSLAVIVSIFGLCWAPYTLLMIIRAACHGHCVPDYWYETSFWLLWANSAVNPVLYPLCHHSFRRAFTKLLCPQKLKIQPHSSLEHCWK

Turning to `CC(=O)N1CCN(CC(=O)c2cc(Cl)c(OCCCN3CCC[C@H]3C)c(Cl)c2)CC1` [Example 110, 2-(4-Acetyl-piperazin-1-yl)-1-{3,5-dichloro-4-[3-((R)-2-methyl-pyrrolidin-1-yl)-propoxy]-phenyl}-ethanone], the melting point is 115 °C. For the same compound, in data set [1], the inhibition constant (Ki) is 101 to 500 nM. This compound also gave an inhibitory constant (Ki) at human H3 receptor of 101 to 500 nM.
`C[C@@H]1CCCN1CCCOc1c(Cl)cc(C(=O)CN2CCN(c3ncccn3)CC2)cc1Cl` [Example 111, 1-{3,5-Dichloro-4-[3-((R)-2-methyl-pyrrolidin-1-yl)-propoxy]-phenyl}-2-(4-pyrimidin-2-yl-piperazin-1-yl)-ethanone]: the melting point amounted to 177 °C. The inhibition constant (Ki) in data set [1] was 101 to 500 nM. For the same compound, the Ki on human H3 receptor lay within 0.1 to 100 nM.
The matching figures for `C[C@@H]1CCCN1CCCOc1ccc(C(=O)CN2CCN(C(=O)c3ccccc3)CC2)cc1Cl` [Example 113, 2-(4-Benzoyl-piperazin-1-yl)-1-{3-chloro-4-[3-((R)-2-methyl-pyrrolidin-1-yl)-propoxy]-phenyl}-ethanone]: 130 to 137 °C, 0.1 to 100 nM and 0.1 to 100 nM.
For `C[C@@H]1CCCN1CCCOc1ccc(C(=O)CN2CCCCc3ccccc32)cc1` [Example 114, 1-{4-[3-((R)-2-Methyl-pyrrolidin-1-yl)-propoxy]-phenyl}-2-(2,3,4,5-tetrahydro-benzo[b]azepin-1-yl)-ethanone] the same measures were 90 to 96 °C, 0.1 to 100 nM and 0.1 to 100 nM.
The matching figures for `CCOC(=O)N1CCN(CC(=O)c2ccc(OCCCN3CCC[C@H]3C)cc2)CC1` [Example 115, 4-(2-{4-[3-((R)-2-Methyl-pyrrolidin-1-yl)-propoxy]-phenyl}-2-oxo-ethyl)-piperazine-1-carboxylic acid ethyl ester]: 218 to 219 °C, 0.1 to 100 nM and 0.1 to 100 nM.
For `C[C@@H]1CCCN1CCCOc1ccc(C(=O)CN2CCN(c3ccccn3)CC2)cc1` [Example 116, 1-{4-[3-((R)-2-Methyl-pyrrolidin-1-yl)-propoxy]-phenyl}-2-(4-pyridin-2-yl-piperazin-1-yl)-ethanone], the melting point fell in the range of 239 to 242 °C. In data set [1], the inhibition constant Ki was in the range of 0.1 to 100 nM. At human H3 receptor, this compound registered a Ki of 0.1 to 100 nM.
`C[C@@H]1CCCN1CCCOc1ccc(C(=O)CN2CCN(C(=O)OC(C)(C)C)CC2)cc1` [Example 117, 4-(2-{4-[3-((R)-2-Methyl-pyrrolidin-1-yl)-propoxy]-phenyl}-2-oxo-ethyl)-piperazine-1-carboxylic acid tert-butyl ester] displayed a melting point of 198 to 199 °C. The Ki in data set [1] is 0.1 to 100 nM. In addition, the Ki on human H3 receptor lay in the range of 0.1 to 100 nM.
Take `CC(C)C(=O)N1CCN(CC(=O)c2ccc(OCCCN3CCC[C@H]3C)c(Cl)c2)CC1` [Example 118, 1-[4-(2-{3-Chloro-4-[3-((R)-2-methyl-pyrrolidin-1-yl)-propoxy]-phenyl}-2-oxo-ethyl)-piperazin-1-yl]-2-methyl-propan-1-one]: the melting point was 140 °C (dec.). Besides, in data set [1], the Ki was 0.1 to 100 nM. Also, the inhibition constant (Ki) on human H3 receptor fell in the range of 0.1 to 100 nM.
In the case of `C[C@@H]1CCCN1CCCOc1ccc(C(=O)CN2CCN(c3ncccn3)CC2)cc1F` [Example 119, 1-{3-Fluoro-4-[3-((R)-2-methyl-pyrrolidin-1-yl)-propoxy]-phenyl}-2-(4-pyrimidin-2-yl-piperazin-1-yl)-ethanone], the melting point was found to be 219 °C. Further, the Ki in data set [1] lay within 0.1 to 100 nM. Further, the Ki on human H3 receptor fell in the range of 0.1 to 100 nM.
Compound `C[C@@H]1CCCN1CCCOc1ccc(C(=O)CN2CCN(C(=O)c3ccccc3)CC2)cc1F` [Example 120, 2-(4-Benzoyl-piperazin-1-yl)-1-{3-fluoro-4-[3-((R)-2-methyl-pyrrolidin-1-yl)-propoxy]-phenyl}-ethanone] registered a melting point of 96 °C. For the same compound, the inhibitory constant (Ki) in data set [1] was in the range of 0.1 to 100 nM. The compound also yielded an inhibitory constant (Ki) at human H3 receptor of 0.1 to 100 nM.
`CC(C)C(=O)N1CCN(CC(=O)c2ccc(OCCCN3CCC[C@H]3C)c(F)c2)CC1` [Example 121, 1-[4-(2-{3-Fluoro-4-[3-((R)-2-methyl-pyrrolidin-1-yl)-propoxy]-phenyl}-2-oxoethyl)-piperazin-1-yl]-2-methyl-propan-1-one] had a melting point of 75 °C. Moreover, in data set [1], the Ki lay within 0.1 to 100 nM. In addition, the Ki at human H3 receptor fell in the range of 0.1 to 100 nM.
Compound `C[C@@H]1CCCN1CCCOc1ccc(C(=O)CN2CCN(S(C)(=O)=O)CC2)cc1F` [Example 122, 1-{3-Fluoro-4-[3-((R)-2-methyl-pyrrolidin-1-yl)-propoxy]-phenyl}-2-(4-methanesulfonyl-piperazin-1-yl)-ethanone] showed a melting point of 86 °C. The inhibitory constant (Ki) in data set [1] was 0.1 to 100 nM. This compound came in with an inhibition constant (Ki) at human H3 receptor of 0.1 to 100 nM.
Turning to `C[C@@H]1CCCN1CCCOc1ccc(C(=O)CN2CCN(C(=O)N(C)C)CC2)cc1F` [Example 123], the melting point stood at 81 °C. Besides, the Ki in data set [1] is 0.1 to 100 nM. The compound also displayed a Ki on human H3 receptor of 0.1 to 100 nM.
As for `C[C@@H]1CCCN1CCCOc1ccc(C(=O)CN2CCN(C(=O)c3cc4ccccc4s3)CC2)cc1` [Example 124, 2-[4-(Benzo[b]thiophene-2-carbonyl)-piperazin-1-yl]-1-{4-[3-((R)-2-methyl-pyrrolidin-1-yl)-propoxy]-phenyl}-ethanone], the melting point lay within 214 to 217 °C. In addition, in data set [1], the inhibitory constant (Ki) lay within 0.1 to 100 nM. In addition, the inhibition constant Ki on human H3 receptor fell in the range of 0.1 to 100 nM.
In the case of `C[C@@H]1CCCN1CCCOc1ccc(C(=O)CN2CCN(c3ncccn3)CC2)cc1Cl` [Example 125, 1-{3-Chloro-4-[3-((R)-2-methyl-pyrrolidin-1-yl)-propoxy]-phenyl}-2-(4-pyrimidin-2-yl-piperazin-1-yl)-ethanone], the melting point was 112 to 114 °C. Further, in data set [1], the inhibition constant Ki lay in the range of 101 to 500 nM. Besides, the Ki at human H3 receptor lay within 0.1 to 100 nM.
The matching figures for `C[C@@H]1CCCN1CCCOc1ccc(C(=O)CN2CCN(C(=O)c3ccc(F)cc3F)CC2)cc1` [Example 126, 2-[4-(2,4-Difluoro-benzoyl)-piperazin-1-yl]-1-{4-[3-((R)-2-methyl-pyrrolidin-1-yl)-propoxy]-phenyl}-ethanone]: 115 to 117 °C, 0.1 to 100 nM and 0.1 to 100 nM.
The matching figures for `COC(=O)N1CCN(CC(=O)c2ccc(OCCCN3CCC[C@H]3C)c(F)c2)CC1` [Example 127, 4-(2-{3-Fluoro-4-[3-((R)-2-methyl-pyrrolidin-1-yl)-propoxy]-phenyl}-2-oxo-ethyl)-piperazine-1-carboxylic acid methyl ester]: 236 °C, 0.1 to 100 nM and 0.1 to 100 nM.
Compound `C[C@@H]1CCCN1CCCOc1ccc(C(=O)CN2CCN(C(=O)Oc3ccccc3)CC2)cc1` [Example 128, 4-(2-{4-[3-((R)-2-Methyl-pyrrolidin-1-yl)-propoxy]-phenyl}-2-oxo-ethyl)-piperazine-1-carboxylic acid phenyl ester] displayed a melting point of 194 to 199 °C. Further, the Ki in data set [1] lay within 0.1 to 100 nM. At human H3 receptor, this compound came in with an inhibitory constant (Ki) of 0.1 to 100 nM.
The compound `C[C@@H]1CCCN1CCCOc1ccc(C(=O)CN2CCN(C(=O)c3ccc(Cl)c(Cl)c3)CC2)cc1` [Example 129, 2-[4-(3,4-Dichloro-benzoyl)-piperazin-1-yl]-1-{4-[3-((R)-2-methyl-pyrrolidin-1-yl)-propoxy]-phenyl}-ethanone] had a melting point of 88 to 90.5 °C. For the same compound, the inhibition constant (Ki) in data set [1] is 0.1 to 100 nM. Besides, the inhibitory constant (Ki) at human H3 receptor lay in the range of 0.1 to 100 nM.
`Cc1cc(C(=O)CN2CCN(c3ncccn3)CC2)ccc1OCCCN1CCC[C@H]1C` [Example 130, 1-{3-Methyl-4-[3-((R)-2-methyl-pyrrolidin-1-yl)-propoxy]-phenyl}-2-(4-pyrimidin-2-yl-piperazin-1-yl)-ethanone] yielded a melting point of 231.5 to 235 °C. Moreover, the Ki in data set [1] was 0.1 to 100 nM. This compound returned an inhibition constant (Ki) at human H3 receptor of 0.1 to 100 nM.
With `COC(=O)N1CCN(CC(=O)c2ccc(OCCCN3CCC[C@H]3C)c(Cl)c2)CC1` [Example 132, 4-(2-{3-Chloro-4-[3-((R)-2-methyl-pyrrolidin-1-yl)-propoxy]-phenyl}-2-oxo-ethyl)-piperazine-1-carboxylic acid methyl ester], the melting point lay within 122 to 124 °C. Further, the Ki in data set [1] fell in the range of 101 to 500 nM. Besides, on human H3 receptor, the Ki lay within 0.1 to 100 nM.
The matching figures for `C[C@@H]1CCCN1CCCOc1ccc(C(=O)CN2CCC(F)(F)CC2)cc1Cl` [Example 134, 1-{3-Chloro-4-[3-((R)-2-methyl-pyrrolidin-1-yl)-propoxy]-phenyl}-2-(4,4-difluoro-piperidin-1-yl)-ethanone]: 130 to 143 °C, 101 to 500 nM and 0.1 to 100 nM.
For `CC(=O)N1CCN(CC(=O)c2ccc(OCCCN3CCC[C@H]3C)c(Cl)c2)CC1` [Example 135, 2-(4-Acetyl-piperazin-1-yl)-1-{3-chloro-4-[3-((R)-2-methyl-pyrrolidin-1-yl)-propoxy]-phenyl}-ethanone] the same measures were 113 to 128 °C, 0.1 to 100 nM and 0.1 to 100 nM.
For `C[C@@H]1CCCN1CCCOc1ccc(C(=O)CN2CCN(C(=O)OCc3ccccc3)CC2)cc1` [Example 138, 4-(2-{4-[3-((R)-2-Methyl-pyrrolidin-1-yl)-propoxy]-phenyl}-2-oxo-ethyl)-piperazine-1-carboxylic acid benzyl ester] the same measures were 183 to 188 °C, 0.1 to 100 nM and 0.1 to 100 nM.
